Here are results for 7 compounds from publication PMC7559231, “Drug-induced cholestasis assay in primary hepatocytes” (MethodsX, 2020).

Details of data set [1]: method as in per compound in column References of Table 3 ([3], [24]-[44]). The following applies: mean total peak plasma concentration in humans; ref per compound in Table 3 ([3], [24]-[44]); cited from earlier work.
Data set [2] has as its system sandwich-cultured human hepatocytes. The following applies: SCHH, ref [6],[7], cited from earlier work; for DICI 24 h Mean: 24 h exposure; for DICI 48 h Mean: 48 h exposure.
Data set [3] shares this test system. The experiment in a line: Drug-induced cholestasis (DIC) assay: urea formation in sandwich-cultured human hepatocytes with and without the bile salt mixture. The following applies: lowest in vitro concentration with DICI < 0.78 / Cmax,total; for DICI-based SM obtained with the ‘original’ LOAEL method 24 h: 24 h incubation; for DICI-based SM obtained with the ‘original’ LOAEL method 48 h: 48 h incubation. From the text: Drug-induced cholestasis (DIC) is a major cause of attrition during drug development and post-marketing withdrawal. Early detection of DIC is crucial for avoiding financial losses and improving drug safety. Preclinical assays for DIC detection often rely on evaluation of the test compound towards individual cellular targets such as their inhibitory potential towards the bile salt export pump (BSEP) by using BSEP membrane vesicles. However, the underlying mechanisms of DIC development are more complex involving multiple other transporters and nuclear receptors. A more comprehensive in vitro model such as sandwich-cultured human hepatocytes (SCHH) are more suited due to the presence of metabolizing enzymes and transporters relevant to bile salt disposition. The assay described here relies on changes in the ability of SCHH to produce urea from ammonia in the absence and presence of a (patho-)physiologically relevant bile salt mixture. Ammonia is detoxified in the hepatocyte by the urea cycle to form non-toxic urea. Measuring changes in urea production allows for the quantitative evaluation of the hepatocyte's biochemical and functional integrity. The colorimetric quantitation of urea formation is based on the reaction between urea and diacetylmonoxime.
By determining the ratio of urea formation after incubation with test compound in absence and in presence of the bile salt mixture, the DIC index (DICI) value can be calculated. […] It was previously established that a compound with a SM below 30 can be considered to display increased risk for causing cholestasis in the clinic.
If longer incubations are required (e.g. 48 h), the medium is changed again after 24 h (day 6) with fresh medium containing the same initial concentrations of test compound and bile salts as 24 h before.
• Solution 1: culture medium with no compound and 0.2% DMSO. […] This solution should be filtered through a 0.2 µm filter and prewarmed for 30 min at 37°C. • Solution 4: culture medium with double concentrated test compound. […] This solution should be filtered through a 0.2 µm filter and prewarmed for 30 min at 37°C. • Solution 5: control medium with bile salts, prepared by mixing solution 1 and solution 2 in a 1:1 ratio. • Solution 6: culture medium with positive control without bile salts, prepared by mixing solution 1 and solution 3 in a 1:1 ratio. • Solution 7: culture medium with positive control with bile salts, prepared by mixing solution 2 and solution 3 in a 1:1 ratio. • Solution 8: culture medium with test compound without bile salts, prepared by mixing solution 1 and solution 4 in a 1:1 ratio. • Solution 9: culture medium with test compound with bile salts, prepared by mixing solution 2 and solution 4 in a 1:1 ratio.
• 1. On day 5, aspirate the medium and preincubate the cells with solution 1, solution 6 or solution 8 for 2 h. Note: this preincubation step is performed to enable the compounds to interact with the cellular machinery. • 2. After 2 h, aspirate the medium and immediately incubate the cells with solution 1, solution 5, solution 6, solution 7, solution 8 or solution 9 for 22 h.
The urea assay is performed on day 6 or day 7 for 24 h and 48 h incubations, respectively.
• Solutions for the color reagent. […] Note: perform this procedure on ice as this is an exothermic reaction. Wear appropriate protective gear. • ○ Solution B prepared by mixing the thiosemicarbazide solution and the diacetyl monoxime in a 1:1 ratio. • Incubation buffer: HBSS containing 10 mM HEPES, 2 mM glutamine, 10 mM ammonium chloride and 3 mM ornithine, filtered through a 0.2 µm filter and prewarmed at 37°C. • 96-well thermostable plate with aluminum cover slip.
• 1. Aspirate the culture medium. • 2. Wash the wells twice with 250 µL prewarmed incubation buffer. Aspirate the remaining buffer. • 3. Add 125 µL prewarmed incubation buffer to each well and keep the plate at 37°C for 1 h. • 4.

Where two headings read alike, the source gives them in different places.

Take `CC[C@H]1OC(=O)[C@H](C)[C@@H](O[C@H]2C[C@@](C)(OC)[C@@H](O)[C@H](C)O2)[C@H](C)[C@@H](O[C@@H]2O[C@H](C)C[C@H](N(C)C)[C@H]2O)[C@](C)(O)C[C@@H](C)C(=O)[C@H](C)[C@@H](O)[C@]1(C)O` [Erythromycin, erythromycin]: the “Cmax,total” value in data set [1] is 3970 nM. Moreover, the “DICI 24 h Mean” value is 0.94 in data set [2] (50 µM test compound), 1.29 in data set [2] (100 µM test compound) and 1.42 in data set [2] (200 µM test compound). In data set [3], the “DICI-based SM obtained with the ‘original’ LOAEL method 24 h” value turned out to be 50.38.

On to `CN(C)CCCN1c2ccccc2Sc2ccc(Cl)cc21` [Chlorpromazine, chlorpromazine], for which the “Cmax,total” value in data set [1] was 37.6 nM. The “DICI 24 h Mean” value in data set [2] (10 µM test compound) is recorded as 0.48. In addition, the “DICI-based SM obtained with the ‘original’ LOAEL method 24 h” value in data set [3] is 265.96.

For the compound `CCc1ccc(CCOc2ccc(CC3SC(=O)NC3=O)cc2)nc1` (stereo not shown) [Pioglitazone, pioglitazone], the “Cmax,total” value in data set [1] is 2950 nM. The “DICI 24 h Mean” value in data set [2] (50 µM test compound) is given as 1.15; in data set [2] (100 µM test compound) it was 1.00; in data set [2] (300 µM test compound), 0.94. The “DICI-based SM obtained with the ‘original’ LOAEL method 24 h” value in data set [3] worked out at 101.69. The “DICI-based SM obtained with the ‘original’ LOAEL method 48 h” value in data set [3] turned out to be 101.69.

As to `Cc1ccc(C(=O)c2cc(O)c(O)c([N+](=O)[O-])c2)cc1` [Tolcapone, tolcapone], in data set [1], the “Cmax,total” value is 47600 nM. In data set [2] (5 µM test compound), the “DICI 24 h Mean” value was 0.98 and the “DICI 48 h Mean” value was 1.01. In data set [2] (10 µM test compound), the “DICI 24 h Mean” value was 1.05 and the “DICI 48 h Mean” value is listed as 0.89. Besides, in data set [2] (50 µM test compound), the “DICI 24 h Mean” value was 0.91 and the “DICI 48 h Mean” value is 0.79. For the same compound, in data set [3], the “DICI-based SM obtained with the ‘original’ LOAEL method 24 h” value stood at 1.05 and the “DICI-based SM obtained with the ‘original’ LOAEL method 48 h” value amounted to 1.05.

Take `COC(=O)N[C@H](C(=O)N[C@@H](Cc1ccccc1)[C@@H](O)CN(Cc1ccc(-c2ccccn2)cc1)NC(=O)[C@@H](NC(=O)OC)C(C)(C)C)C(C)(C)C` [Atazanavir, atazanavir]: in data set [1], the “Cmax,total” value is 4820 nM. In addition, in data set [2] (50 µM test compound), the “DICI 24 h Mean” value is listed as 0.87 and the “DICI 48 h Mean” value is listed as 0.86. In addition, in data set [2] (150 µM test compound), the “DICI 24 h Mean” value was 1.19 and the “DICI 48 h Mean” value is reported as 0.73. Moreover, in data set [3], the “DICI-based SM obtained with the ‘original’ LOAEL method 24 h” value turned out to be 31.12 and the “DICI-based SM obtained with the ‘original’ LOAEL method 48 h” value stood at 31.12.

In the case of `O=c1[nH]c(=O)n([C@@H]2O[C@H](CO)[C@@H](O)[C@@H]2F)cc1I` [Fialuridine, fialuridine], the “Cmax,total” value in data set [1] is 640 nM. Besides, the “DICI 24 h Mean” value in data set [2] (10 µM test compound) is listed as 0.88; in data set [2] (20 µM test compound) it was 0.94; in data set [2] (30 µM test compound) it was 0.95; in data set [2] (50 µM test compound), 0.79; in data set [2] (100 µM test compound) it was 1.12; in data set [2] (300 µM test compound), 0.82. For the same compound, the “DICI 48 h Mean” value in data set [2] (10 µM test compound) was 0.92; in data set [2] (20 µM test compound), 0.79; in data set [2] (30 µM test compound), 1.26; in data set [2] (50 µM test compound), 1.19; in data set [2] (100 µM test compound), 0.89; in data set [2] (300 µM test compound) it was 0.96. The “DICI-based SM obtained with the ‘original’ LOAEL method 24 h” value in data set [3] came to 468.75.

With `O=C1CC2(CCCC2)CC(=O)N1CCCCN1CCN(c2ncccn2)CC1` [Buspirone, buspirone], the “Cmax,total” value in data set [1] is 10 nM. For the same compound, the “DICI 24 h Mean” value in data set [2] (0.5 µM test compound) was 0.69; in data set [2] (1 µM test compound) it was 0.87; in data set [2] (5 µM test compound), 0.74; in data set [2] (10 µM test compound) it was 0.82; in data set [2] (25 µM test compound), 0.84; in data set [2] (50 µM test compound) it was 0.68. In data set [2] (150 µM test compound), the “DICI 24 h Mean” value is reported as 0.53. The “DICI 48 h Mean” value in data set [2] (0.5 µM test compound) is on record as 0.82; in data set [2] (1 µM test compound) it was 0.90; in data set [2] (5 µM test compound), 0.95; in data set [2] (10 µM test compound) it was 0.95; in data set [2] (25 µM test compound), 0.71; in data set [2] (50 µM test compound) it was 0.48. The “DICI 48 h Mean” value in data set [2] (150 µM test compound) is listed as 0.37. Further, the “DICI-based SM obtained with the ‘original’ LOAEL method 24 h” value in data set [3] is on record as 5000. Besides, the “DICI-based SM obtained with the ‘original’ LOAEL method 48 h” value in data set [3] came out at 15000.
